Experimental data published in patent US20050026845A1, “Pharmaceutical/cosmetic compositions comprising the lysine-D-proline-valine tripeptide” (priority 1995, published 2005).
Non-standard residues stand in square brackets, D forms with d. Residues, ends and D or L forms follow the SMILES beside them.

Experiments:
catagenic papilla cells = test: Inhibition of IL-1α-induced production of PGE2 by catagenic papilla cells cultured in vitro; format: cell-based; settings: 10 μM tripeptide; for PGE2: IL-1α 10 ng/ml, control 9.2, IL-1α alone 100.2; for % inhibition: PGE2 induced by IL-1α 10 ng/ml
Protocol: Measurement of the inhibition of the production of PGE2 by catagenic papilla cells cultured in vitro.
The cells (1,000 per well), at the 24th passage, were incubated in 199 medium marketed by Gibco in the presence of 1% foetal calf serum and of antibiotics. 20 hours later, the medium was replaced by an identical medium, but containing the tripeptides to be evaluated at a final concentration of 10 μM. 5 hours later, interleukin-1α was added at a final concentration of 10 ng/ml. 20 hours later, the PGE2 levels produced by the cultured papilla cells were evaluated by means of a Biotrack kit marketed by Amersham, the manufacturer's instructions being followed. This method thus made it possible to evaluate the inhibiting effect of these tripeptides on the production of PGE2 induced by a proinflammatory cytokine: interleukin-1α.

interleukin-1α = test: Production of interleukin-1α in the supernatant of plucked hairs (ELISA); format: cell-based, human; settings: 20 hours; for % of inhibition: IL-1α in supernatant; for IL-1α: plucked hairs from inflammatory alopecia, control 21.8 pg/ml
Protocol: Dose-response activity of the Ac-LPV-NH2* tripeptide with respect to the production of interleukin-1α in the supernatant of plucked hairs emanating from a patient afflicted with inflammatory alopecia.
Plucked hairs were removed from the region of the vertex of a volunteer suffering from inflammatory alopecia. They were placed in a Williams' survival medium E (marketed by Gibco BRL) containing penicillin G (100 units/ml), streptomycin S (100 μg/ml) and amphotericin (250 ng/ml), in the presence or in the absence (control) of the Ac-LPV-NH2* tripeptide, synthesized to order by Neosystem S.A. (Strasbourg), at the doses indicated. After incubating for 20 hours, the culture supernatants were collected in a tube and then centrifuged for 5 minutes at 14,000 revolutions/minute (Eppendorff centrifuge, model 5415C). The supernatants were then collected in a clean tube and placed at 4° C.
The interleukin-1α concentration was then evaluated with respect to 100 μl of supernatant by means of a Biotrak ELISA kit marketed by Amersham, according to the manufacturer's instructions.

IL-1α [1] = test: Expression of IL-1α mRNA in plucked hairs (RT-PCR, relative to GAPDH), 3 h 30 min; format: cell-based, human; settings: treated batch vs control batch (100%), dose not given
Protocol: (§1) Inhibition of the expression of the messenger RNAs of proinflammatory and inflammatory cytokines in response to the Ac-LPV-NH2* tripeptide.
(§2) Ten plucked hairs were removed from the region of the vertex of a volunteer suffering from inflammatory alopecia. These were placed in a Williams' survival medium E (marketed by Gibco BRL) containing penicillin G (100 units/ml), streptomycin S (100 μg/ml) and amphotericin (250 ng/ml), in the presence (treated batch) or in the absence (control) of the Ac-LPV-NH2* tripeptide, synthesized to order by Neosystem S.A., (Strasbourg).
(§3) After incubating for 3 h, 30 min, the messenger RNAs corresponding to these two batches of hair were purified from a “quick prep mRNA purification kit” marketed by Pharmacia. DNAs complementary to these mRNAs were then prepared by means of a reverse transcription kit marketed by Pharmacia, the manufacturer's instructions being followed, and then subjected to a polymerization chain reaction (PCR) stage by using primers specific for the mRNAs of glyceraldehyde-3-phosphate dehydrogenase (GAPDH), of IL-1α, of the type-1 IL-1 receptor and of the type-2 IL-1 receptor. The amounts of amplified DNA were then evaluated by electrophoresis on 1.5% agarose gel in the presence of ethidium bromide. […]

IL-1α [2] = test: Expression of the mRNAs of IL-1α from the IL-1α/GAPDH ratio, plucked hairs of two donors, 20 hours; format: cell-based, human
Protocol: Inhibiting effect of Ac-LPV-NH2* on the expression of the mRNAs of IL-1α, calculated from the IL-1α/GAPDH ratio.
5 hairs were plucked from two different donors and were then incubated for 20 hours at 37° C. (5% CO2) in Williams' medium E supplemented with antibiotics and with glutamine and in the presence of Ac-LPV-NH2* at the concentrations indicated. A control was carried out in which there was no peptide added.

[3] = tested on: type-1 IL-1 receptor (IL-1R1); test: Expression of type-1 IL-1 receptor mRNA in plucked hairs (RT-PCR, relative to GAPDH), 3 h 30 min; format: cell-based, human; settings: treated batch vs control batch (100%), dose not given
Protocol: as §1, §2, §3

Structure (SMILES)	PGE2 (catagenic papilla cells)	% inhibition (catagenic papilla cells)	% of inhibition (interleukin-1α; dose 1 μM)	IL-1α (interleukin-1α; dose 1 μM)	% of inhibition (interleukin-1α; dose 10 μM)	IL-1α (interleukin-1α; dose 10 μM)	% of expression IL-1α (IL-1α [1])	expression of the mRNAs of IL-1α, % of the control (IL-1α [2]; donor A, 1 μM)	expression of the mRNAs of IL-1α, % of the control (IL-1α [2]; donor A, 10 μM)	expression of the mRNAs of IL-1α, % of the control (IL-1α [2]; donor B, 0.1 μM)	expression of the mRNAs of IL-1α, % of the control (IL-1α [2]; donor B, 1 μM)	expression of the mRNAs of IL-1α, % of the control (IL-1α [2]; donor B, 10 μM)	% of expression IL-1R1 [3]
CC(=O)N[C@@H](CCCCN)C(=O)N1CCC[C@@H]1C(=O)N[C@H](C(N)=O)C(C)C [Ac-L-(D)P-V-NH2***, Acetyl-(L) Lys-(D) Pro-(L) Val-NH2] (Ac-Lys-[dP]-Val-NH2)	24.6 pg/mL	75%	–	–	–	–	–	–	–	–	–	–	–
CC(=O)N[C@@H](CCCCN)C(=O)N1CCC[C@H]1C(=O)N[C@H](C(N)=O)C(C)C [Acetyl-(L) Lys-(L) Pro-(L) Val-NH2, reference compound] (Ac-Lys-Pro-Val-NH2)	10.0 pg/mL	90%	–	–	–	–	–	–	–	–	–	–	–
CC(=O)N[C@H](CCCCN)C(=O)N1CCC[C@@H]1C(=O)N[C@@H](C(N)=O)C(C)C [Acetyl-(D) Lys-(D) Pro-(D) Val-NH2] (Ac-[dK]-[dP]-[dV]-NH2)	28.0 pg/mL	78%	49%	11.1 pg/mL	72%	6.1 pg/mL	0%	51%	28%	53%	62%	28.7%	26%
